Here are results for 10 compounds from patent US10519193B2, “Steroidal compound, composition containing the same and use thereof” (Shenzhen TargetRx, Inc., priority 2016, dated 2019).

Series [1] relates to castration-resistant prostate cancer. The conditions noted are these: patients, cited from earlier work.
Series [2] in a line: Pharmacokinetic evaluation in rats. The class given is in vivo. As to conditions: male, Sprague-Dawley, plasma, 5 mg/kg; rat, PO. As for the experimental part:
8 male Sprague-Dawley rats (7-8 weeks old, and weighing approximately 210 g) were divided into two groups with 4 rats in each group, a single oral dose of 5 mg/kg given to the two groups were (a) control group: (3β)-17-(3)-pyridyl)androst-5,16-dienol and (b) test group: Examples 1-13, and pharmacokinetic differences between the two groups were compared.
The rats were raised on standard food and water. Fasting was started 16 hours before the test. The drug was dissolved with PEG400 and dimethyl sulfoxide. The blood samples were collected from eyelids at the time points of 0.083 hours, 0.25 hours, 0.5 hours, […], 2 hours, 4 hours, 6 hours, 8 hours, 12 hours, and 24 hours after administration.
Rats were briefly anesthetized after inhalation of diethyl ether and 300 μL of blood sample was collected from the eyelids into test tubes. There was 30 μL of 1% heparin salt solution in the test tube. Tubes were dried at 60° C. overnight before use. After the blood sample was collected at a later time point, the rats were sacrificed after ether anesthesia.
Immediately after the collection of the blood sample, the test tube was gently inverted at least 5 times to ensure sufficient mixing and then placed on ice. The blood sample was centrifuged at 5000 rpm at 4° C. for 5 minutes to separate the plasma from the red blood cells. 100 μL of plasma was aspirated into a clean plastic centrifuge tube with a pipette, marking with the name of the compound and time point. Plasma was stored at −80° C. prior to analysis. The concentration of the compound of the present disclosure in plasma was determined by LC-MS/MS. The pharmacokinetic parameters were calculated based on the blood concentration of each animal at different time points.

Series [3] is described as follows: Pharmacokinetic evaluation in rats. The class given is in vivo. The conditions noted are these: male, Sprague-Dawley, plasma; rat, IV.
Series [4] is described as follows: Metabolic stability evaluation in human liver microsomes. The class given is in vitro ADME. As to conditions: for half-life at 1 μM / microsomal CLint at 1 μM: human liver microsomes, pH 7.4, 1 μM compound, 0.5 mg/mL protein; for half-life at 1 μM / microsomal CLint at 1 μM / clearance compared to the non-deuterated compound / half-life compared to the non-deuterated compound: human liver microsome; for clearance compared to the non-deuterated compound / half-life compared to the non-deuterated compound / half-life of the deuterated prodrug: in words; for half-life of the deuterated prodrug: metabolized abiraterone of the prodrug, liver microsomes, versus abiraterone acetate. Here is the method:
Experiments in microsomes: Human liver microsomes: 0.5 mg/mL, Xenotech; Coenzyme (NADPH/NADH): 1 mM, Sigma Life Science; Magnesium chloride: 5 mM, 100 mM phosphate buffer (pH 7.4).
Preparation of stock solution: Powder of the example compound was accurately weighed and dissolved in DMSO to 5 mM.
Preparation of phosphate buffer (100 mM, pH7.4): A pre-formulated 0.5M potassium dihydrogen phosphate (150 mL) was mixed with 0.5M dibasic potassium phosphate (700 mL). The pH of the mixture was adjusted to 7.4 with 0.5M dibasic potassium phosphate solution. The mixture was diluted 5-fold with ultrapure water before use, and magnesium chloride was added to obtain a phosphate buffer (100 mM) containing 100 mM potassium phosphate, 3.3 mM magnesium chloride, pH 7.4.
A NADPH regeneration system solution (containing 6.5 mM NADP, 16.5 mM G-6-P, 3 U/mL G-6-P D, 3.3 mM magnesium chloride) was prepared and placed on wet ice prior to use.
Preparation of stop solution: acetonitrile solution containing 50 ng/mL propranolol hydrochloride and 200 ng/mL tolbutamide (internal standard). 25057.5 μL of phosphate buffer (pH 7.4) was taken into a 50 mL centrifuge tube, to which 812.5 μL human liver microsomes were added, and mixed to obtain a liver microsome dilution solution with a protein concentration of 0.625 mg/mL. 25057.5 μL of phosphate buffer (pH 7.4) was taken into a 50 mL centrifuge tube, to which 812.5 μL SD rat liver microsomes were added, and mixed to obtain a liver microsome dilution solution with a protein concentration of 0.625 mg/mL.
Incubation of the samples: The stock solution of the respective compound was respectively diluted to 0.25 mM with an aqueous solution containing 70% acetonitrile, and used as a working solution, ready for use. 398 μL of the dilution solution of human liver microsomes or rat liver microsome were added to a 96-well incubation plate (N=2), respectively, and 2 μL of 0.25 mM working solution was added and mixed.
Metabolic stability assay: 300 μL of pre-chilled stop solution was added to each well of a 96-well deep well plate and placed on ice as a stop plate. The 96 well incubation plate and NADPH regeneration system were placed in a 37° C. water bath box, shaken at 100 rpm and pre-incubated for 5 min. 80 μL of incubation solution was taken out from each well of the incubation plate and added to the stop plate, mixed, and replenished with 20 μL of NADPH regeneration system solution as a 0-min sample. 80 μL of NADPH regeneration system solution was added to each well of the incubation plate to start the reaction and start counting. […] Separately, 100 μL of the reaction solution was taken at 10, 30, and 90 min reaction, respectively, added to a stop plate, and vortexed for 3 minutes to terminate the reaction. The stop plate was centrifuged at 5000×g at 4° C. for 4 min. 100 μL of the supernatant was added to a 96-well plate to which 100 μL of distilled water was previously added, mixed, and analyzed by LC-MS/MS.
Data analysis: The peak areas of the corresponding compound and internal standard were detected by LC-MS/MS system, and the ratio of the peak area of the compound to the internal standard was calculated.
(Microsomes from liver hold many membrane-bound enzymes, among them those of drug oxidation.)

Series [5] addresses T1, Human CYP17 (Homo sapiens, UniProt P05093).
T1 sequence (P05093 1-508): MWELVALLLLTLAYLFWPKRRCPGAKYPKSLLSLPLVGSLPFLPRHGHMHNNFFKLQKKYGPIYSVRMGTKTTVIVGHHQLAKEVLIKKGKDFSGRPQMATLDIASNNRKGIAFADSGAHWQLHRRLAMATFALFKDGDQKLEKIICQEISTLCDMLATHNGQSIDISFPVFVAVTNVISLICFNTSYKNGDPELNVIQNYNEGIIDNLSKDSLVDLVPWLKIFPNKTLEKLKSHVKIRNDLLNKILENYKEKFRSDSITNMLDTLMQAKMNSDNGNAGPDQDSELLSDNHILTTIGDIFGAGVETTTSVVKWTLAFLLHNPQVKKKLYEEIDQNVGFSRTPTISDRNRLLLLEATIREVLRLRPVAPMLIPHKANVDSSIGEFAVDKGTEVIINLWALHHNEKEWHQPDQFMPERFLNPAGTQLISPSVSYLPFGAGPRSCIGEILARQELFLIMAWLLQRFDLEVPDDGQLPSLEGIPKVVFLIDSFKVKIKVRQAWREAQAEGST
Briefly: CYP17 lyase assay. The class given is biochemical. The arrangement: made in house; host or cells: HEK293 cells (microsomes). As for the experimental part: Human CYP17 was expressed in HEK293 cells and microsome were prepared, which was subsequently used as a source of enzyme for lyase assays. The reaction includes 200 nM [3H]-hydroxy pregnenolone (ARC), 200 nM 17-hydroxy pregnenolone (Sigma), 2 mM NADPH (Calbiochem), and CYP 17-HEK293 microsomes, which were incubated for 20 minutes at room temperature in the presence of DMSO or a test compound. Compounds were dissolved in DMSO and serially diluted. The reaction was stopped by the addition of 0.2N HCl and the product was captured using an anti-mouse YSi SPA Bead (GE) conjugated anti-DHEA monoclonal antibody (Abcam). The signal intensity determined by Packard Top Count was used to calculate the percent inhibition and IC50 values.

The target in series [6] is T1, Human CYP17. Briefly: CYP17 hydroxylase assay. The format is biochemical. On the set-up: made in house; host or cells: E. coli (membrane preparation). Here is the method:
E. coli was transformed to express active human CYP17, and a membrane prepared from the transformed E. coli was used as a source of the enzyme. […] The reaction mixture was incubated at 37° C. for 120 minutes and 200 μL of 0.02 N HCl in acetonitrile was added to stop the reaction. The sample was then spun at […] and 200 μL of the supernatant was transferred to a clean tube for determination. The reaction product 17-alpha pregnenolone was measured by LC/MS.

The mark [7] stands for this setting: abiraterone acetate plus prednisone.
Where [8] appears, read: CYP17-HEK293 microsomes, 20 minutes at room temperature, read-out: CYP17 lyase IC50.
The mark [9] stands for this setting: hCYP17 E. coli membrane, 25 μM pregnenolone, 37° C. 120 minutes, read-out: CYP17 hydroxylase IC50.

Where only a bound is given, the exact number is not on record here.

As to `CC(=O)O[C@H]1CC[C@@]2(C)C(=CC[C@@H]3[C@@H]2CC[C@]2(C)C(c4cccnc4)=CC[C@@H]32)C1` [Abiraterone acetate, reference compound], in series [1] (abiraterone acetate plus prednisone vs placebo plus prednisone), the “risk of death reduced” value was 35%. In series [1] (setting [7]), the Median survival is listed as 14.8 months and the “Median survival longer than placebo plus prednisone” value was 3.9 months. Further, in series [2], the AUC(0-inf) (in general, the area under the concentration-time curve extrapolated to infinity) came out at 1320 ng·h/mL; the AUC(0-t) (commonly exposure summed from dosing to a finite time, without extrapolation to infinity) came to 1290 ng·h/mL; the highest level (Cmax) was 506 ng/mL; the Tmax (commonly the time at which the peak concentration occurs) turned out to be 1.33 h. In series [3], the AUC(0-inf) was 192 ng·h/mL; the AUC(0-t) stood at 110 ng·h/mL; the Cmax (as a rule, the highest concentration seen after dosing) was found to be 10.6 ng/mL; the Tmax turned out to be 2 h.

For the compound `C[C@]12CC[C@H](O)CC1=CC[C@@H]1[C@@H]2CC[C@]2(C)C(c3cccnc3)=CC[C@@H]12` [Abiraterone, (3β)-17-(3-pyridinyl)androst-5,16-dienol, reference compound], in series [4], the half-life – broadly, how long it takes for the measured level to halve – at 1 μM is 0.667 h and the microsomal CLint (in general, a measure of how fast metabolising enzymes remove a compound, apart from limits set by blood flow) at 1 μM stood at 34.7 µL/min/mg. The IC50 (as a rule, the point on the concentration scale where inhibition reaches its midpoint) on Human CYP17 [5] (setting [8]) is less than 10 nM.

As for `[2H]c1ccc(C2=CCC3C4CC=C5C[C@@H](O)CC[C@]5(C)C4CC[C@]23C)cn1` (stereo partly drawn) [Example 1, (3β)-17-(3-pyridyl-6-d)androst-5,16-dienol], in series [4], the “clearance compared to the non-deuterated compound” value is “reduced”, the “half-life compared to the non-deuterated compound” value was “prolonged”, the half-life at 1 μM is more than 2.42 h and the microsomal CLint at 1 μM is less than 9.6 µL/min/mg. The IC50 on Human CYP17 [6] (setting [9]) was less than 20 nM. Also, at Human CYP17 [5] (setting [8]), the IC50 was less than 10 nM.

Regarding `[2H]c1cncc(C2=CCC3C4CC=C5C[C@@H](O)CC[C@]5(C)C4CC[C@]23C)c1` (stereo partly drawn) [Example 2, (3β)-17-(3-pyridyl-5-d)androst-5,16-dienol], in series [4], the “clearance compared to the non-deuterated compound” value is reported as “reduced”, the “half-life compared to the non-deuterated compound” value is given as “prolonged”, the half-life at 1 μM was determined as 1.19 h and the microsomal CLint at 1 μM worked out at 19.5 µL/min/mg. At Human CYP17 [6] (setting [9]), the IC50 is less than 20 nM. Also, the 50% inhibitory concentration (IC50) at Human CYP17 [5] (setting [8]) is less than 10 nM.

For the compound `[2H]c1cncc(C2=CCC3C4CC=C5C[C@@H](OC(C)=O)CC[C@]5(C)C4CC[C@]23C)c1` (stereo partly drawn) [Example 3, (3β)-17-(3-pyridyl-5-d)androst-5,16-dienyl Acetate], in series [4], the “half-life of the deuterated prodrug” value was “significantly prolonged”.

`[2H]C([2H])([2H])C(=O)O[C@H]1CC[C@@]2(C)C(=CCC3C2CC[C@]2(C)C(c4cccnc4)=CCC32)C1` (stereo partly drawn) [Example 4, (3β)-17-(3-pyridyl)androst-5,16-dienyl d3-acetate]: in series [4], the “half-life of the deuterated prodrug” value is “significantly prolonged”.

As for `[2H]c1ccc(C2=CCC3C4CC=C5C[C@@H](OC(C)=O)CC[C@]5(C)C4CC[C@]23C)cn1` (stereo partly drawn) [Example 5, (3β)-17-(3-pyridyl-6-d)androst-5,16-dienyl Acetate], in series [2], the AUC(0-inf) came to 2440 ng·h/mL, the AUC(0-t) worked out at 2420 ng·h/mL, the Cmax is 813 ng/mL and the Tmax stood at 1.67 h. For the same compound, in series [3], the AUC(0-inf) is 274 ng·h/mL, the AUC(0-t) turned out to be 224 ng·h/mL, the concentration peaked (Cmax) at 24.1 ng/mL and the Tmax came to 3 h.

On to `[2H]c1cncc(C2=CCC3C4CC=C5C[C@@H](OC(=O)C([2H])([2H])[2H])CC[C@]5(C)C4CC[C@]23C)c1` (stereo partly drawn) [Example 7, (3β)-17-(3-pyridyl-5-d)androst-5,16-dienyl d3-acetate], for which the “half-life of the deuterated prodrug” value in series [4] is “significantly prolonged”.

For the compound `[2H]C1=C(c2cccnc2)[C@@]2(C)CCC3C(CC=C4C[C@@H](O)CC[C@@]43C)C2C1` (stereo partly drawn) [Example 8, (3β)-17-(3-pyridyl)androst-5,16-dienol-16-d], in series [4], the “clearance compared to the non-deuterated compound” value is “reduced”, the “half-life compared to the non-deuterated compound” value was “prolonged”, the half-life at 1 μM turned out to be 0.855 h and the microsomal CLint at 1 μM was 24.3 µL/min/mg. Also, on Human CYP17 [6], the IC50 is less than 20 nM. This compound also had an IC50 at Human CYP17 [5] of less than 10 nM.

On to `[2H]C1=C(c2cccnc2)[C@@]2(C)CCC3C(CC=C4C[C@@H](OC(=O)C([2H])([2H])[2H])CC[C@@]43C)C2C1` (stereo partly drawn) [Example 9, (3β)-17-(3-pyridyl)androst-5,16-dienyl-16-d d3-acetate], for which the “half-life of the deuterated prodrug” value in series [4] was “significantly prolonged”. In addition, in series [2], the AUC(0-inf) came out at 2550 ng·h/mL, the AUC(0-t) is 2480 ng·h/mL, the peak level (Cmax) was 549 ng/mL and the Tmax was determined as 1.67 h. Further, in series [3], the Cmax was 43.6 ng/mL and the Tmax came to 17.3 h.
